Type in all cases: cell-based
The subject of test [1] is Pseudomonas aeruginosa (−ve). In words: Disc diffusion, inhibition zone and activity index vs chloramphenicol. Details: activity index (%): concentration or dose not given beside the values. The conditions noted are these: for activity index (%): IZ of test compound/IZ of standard chloramphenicol ×100; for inhibition zone (IZ): disc diffusion. The method, then: (§1) The in vitro antibacterial and antifungal activity of the components was assessed using a series of bacteria (Pseudomonas aeruginosa (−ve), Staphylococcus aureus (+ve), Escherichia coli (−ve), and Bacillus cereus (+ve)) and fungi (Trichophyton rubrum, Aspergillus flavus, and Candida albicans). The disc diffusion method was used to perform the in vitro antimicrobial activity tests. The biological activity of each compound was determined by examining its impact on the size of the inhibition zone, which is a measure of the compound's effectiveness in inhibiting the growth of microorganisms. The inhibitory zone (IZ) surrounding the disc was measured in millimeters. The activity of the current compounds was compared to that of the standard antibiotic chloramphenicol, and the % Activity Index (%=IZ of test compound/IZ of Standard)×100, was evaluated.
Background: In agar diffusion tests the substance spreads into inoculated agar from a disc or well.

Test [2] has as its system Escherichia coli (−ve). The description is as above. Set-up: activity index (%): concentration or dose not given beside the values. As to conditions: for activity index (%): IZ of test compound/IZ of standard chloramphenicol ×100; for inhibition zone (IZ): disc diffusion. The protocol: as §1
The test system of test [3] is Trichophyton rubrum. Described as above. As to conditions: for activity index (%): IZ of test compound/IZ of standard ×100; for inhibition zone (IZ): disc diffusion. The protocol: as §1
Test [4] relates to Aspergillus flavus. Described as above. The conditions noted are these: for activity index (%): IZ of test compound/IZ of standard ×100; for inhibition zone (IZ): disc diffusion. The method, then:
as §1

Test [5] deals with Bacillus cereus (+ve). Described as above. As to conditions: for activity index (%): IZ of test compound/IZ of standard chloramphenicol ×100; for inhibition zone (IZ): disc diffusion. The method, then: as §1
Test [6] concerns Staphylococcus aureus (+ve). The description is as above. As to conditions: for activity index (%): IZ of test compound/IZ of standard chloramphenicol ×100; for inhibition zone (IZ): disc diffusion. The method, then:
as §1

In test [7] the test system is Candida albicans. Described as above. The conditions noted are these: for activity index (%): IZ of test compound/IZ of standard ×100; for inhibition zone (IZ): disc diffusion. The method, then:
as §1

In test [8] the test system is Pseudomonas aeruginosa (−ve). The experiment in a line: MIC by repeated dilution. The source says:
(§2) The MIC, or the lowest concentration of a drug that can inhibit the development of bacteria or fungi, is often used as a starting point in larger preclinical studies of new antibacterial medications. The MIC value was obtained by repeatedly diluting a sample until the desired concentration was reached.

For test [9], the system named is Trichophyton rubrum. The experiment in a line: MIC by repeated dilution.
Source text: as §2

Test [10] has as its system Aspergillus flavus. In words: MIC by repeated dilution.
Source text: as §2

Test [11] deals with Bacillus cereus (+ve). In words: MIC by repeated dilution.
Source text: as §2

Test [12] concerns Escherichia coli (−ve). In words: MIC by repeated dilution.
Source text: as §2

The test system of test [13] is Staphylococcus aureus (+ve). The experiment in a line: MIC by repeated dilution.
Source text: as §2

In test [14] the test system is Candida albicans. The experiment in a line: MIC by repeated dilution.
Source text: as §2

The next test deals with bacteria or fungi. The experiment in a line: MIC by repeated dilution, summary over the tested bacteria and fungi.
Source text: as §2

SMILES strings stand for the structures. ≈ marks a conversion by molar mass, not a printed value. Where two headings read alike, the source gives them in different places.

As to `O.O.[Cl][Fe]1[O]c2ccccc2N=Nc2c(ccc3ccccc23)[O]1` [FeAZD], the “activity index (%)” value in test [1] amounted to 61.11%; in the test with Escherichia coli (−ve) [2], 60.00%; in the test on Trichophyton rubrum [3] it was 50.00%; in the test with Aspergillus flavus [4], 52.63%; in the test with Bacillus cereus (+ve) [5], 66.67%; in test [6], 72.22%. The “activity index (%)” value in the test with Candida albicans [7] turned out to be 57.14%. Moreover, the “inhibition zone (IZ)” value in test [1] was 11 mm; in the test on Escherichia coli (−ve) [2] it was 12 mm; in the test on Trichophyton rubrum [3], 11 mm; in the test with Aspergillus flavus [4], 10 mm; in the test with Bacillus cereus (+ve) [5] it was 12 mm; in [6] it was 13 mm. Moreover, the “inhibition zone (IZ)” value with Candida albicans [7] amounted to 12 mm. The MIC in test [8] is on record as 12.5 ppm; with Trichophyton rubrum [9], 6.25 ppm; in the test on Aspergillus flavus [10], 6.25 ppm; in the test on Bacillus cereus (+ve) [11] it was 6.25 ppm; with Escherichia coli (−ve) [12], 6.25 ppm; in test [13], 6.25 ppm. In the test on Candida albicans [14], the MIC was found to be 6.25 ppm.
In the case of `O.c1ccc2c(c1)N=Nc1c(ccc3ccccc13)[O][Ni][O]2` [NiAZD], the “activity index (%)” value worked out at 61.11% in [1]; 55.00% in the test with Escherichia coli (−ve) [2]; 45.45% with Trichophyton rubrum [3]; 52.63% with Aspergillus flavus [4]; 61.11% in the test on Bacillus cereus (+ve) [5]; 72.22% in test [6]. For the same compound, the “activity index (%)” value with Candida albicans [7] came out at 52.38%. Besides, the “inhibition zone (IZ)” value came out at 11 mm in [1]; 11 mm with Escherichia coli (−ve) [2]; 10 mm in the test on Trichophyton rubrum [3]; 10 mm in the test with Aspergillus flavus [4]; 11 mm with Bacillus cereus (+ve) [5]; 13 mm in test [6]. Also, in the test with Candida albicans [7], the “inhibition zone (IZ)” value stood at 11 mm. Further, the MIC in test [8] came out at 12.5 ppm; against Trichophyton rubrum [9], 6.25 ppm; against Aspergillus flavus [10], 6.25 ppm; against Bacillus cereus (+ve) [11], 6.25 ppm; in the test with Escherichia coli (−ve) [12] it was 6.25 ppm; in [13], 6.25 ppm. The MIC against Candida albicans [14] came out at 6.25 ppm.
With `Oc1ccccc1N=Nc1c(O)ccc2ccccc12` [H2AZD, 1-(2-hydroxyphenylazo)-2-naphthol], the MIC against bacteria or fungi was about 50 µg/mL (≈ 189 µM); in [8] (read-out: MIC), 50 µg/mL (≈ 189 µM); in the test with Trichophyton rubrum [9] (read-out: MIC), 50 µg/mL (≈ 189 µM); with Aspergillus flavus [10] (read-out: MIC), 50 µg/mL (≈ 189 µM); in the test on Bacillus cereus (+ve) [11] (read-out: MIC), 50 µg/mL (≈ 189 µM); in the test on Escherichia coli (−ve) [12] (read-out: MIC) it was 50 µg/mL (≈ 189 µM). Also, the MIC (in test [13] (read-out: MIC); with Candida albicans [14] (read-out: MIC)) was 50 µg/mL (≈ 189 µM) each time. Also, the “activity index (%)” value was found to be 44.44% in test [1]; 40.00% in the test with Escherichia coli (−ve) [2]; 31.82% in the test with Trichophyton rubrum [3]; 42.11% with Aspergillus flavus [4]; 44.44% in the test with Bacillus cereus (+ve) [5]; 50.00% in test [6]. Further, in the test on Candida albicans [7], the “activity index (%)” value was found to be 38.10%. The “inhibition zone (IZ)” value in test [1] is listed as 8 mm; in the test with Escherichia coli (−ve) [2], 8 mm; with Trichophyton rubrum [3], 7 mm; with Aspergillus flavus [4], 8 mm; in the test with Bacillus cereus (+ve) [5], 8 mm; in [6] it was 9 mm. In addition, the “inhibition zone (IZ)” value in the test with Candida albicans [7] is 8 mm.
With `O.O.O.c1ccc2c(c1)N=Nc1c(ccc3ccccc13)[O][Cu][O]2` [CuAZD], the “inhibition zone (IZ)” value in [1] stood at 13 mm; with Escherichia coli (−ve) [2], 13 mm; in the test with Trichophyton rubrum [3], 13 mm; in the test on Aspergillus flavus [4], 12 mm; in the test on Bacillus cereus (+ve) [5], 13 mm; in test [6], 14 mm. Further, the “inhibition zone (IZ)” value in the test with Candida albicans [7] came out at 13 mm. Further, the “activity index (%)” value in the test on Trichophyton rubrum [3] worked out at 59.09%; with Aspergillus flavus [4] it was 63.16%; in the test on Bacillus cereus (+ve) [5], 72.22%; in test [6], 77.78%; in the test on Candida albicans [7], 61.90%. Moreover, the MIC in test [8] is 6.25 ppm; against Trichophyton rubrum [9] it was 6.25 ppm; against Aspergillus flavus [10], 6.25 ppm; in the test on Bacillus cereus (+ve) [11], 6.25 ppm; in the test on Escherichia coli (−ve) [12] it was 3.125 ppm; in test [13], 6.25 ppm. The compound also had an MIC against Candida albicans [14] of 6.25 ppm.

The record behind these values is patent US20250051383A1, “NOVEL FEAZD, NIAZD, AND CUAZD COMPLEXES INCORPORATING 1-(2-HYDROXYPHENYLAZO)-2-NAPHTHOL (H2AZD) FOR BIOLOGICAL APPLICATIONS” (KING FAISAL UNIVERSITY, priority 2023, published 2025).
